# Tested on: TIL1244
# Experiment: T cell recognition of peptide-pulsed 586EBV B cells by TIL1244
# Format: cell-based, human
# Conditions: peptide pulsed onto 586EBV B cells (FIG. 6)
# Source text: FIGS. 6A–6H. CTL clones 2 and 14 recognize the NY-ESO-1 gene, but not the ESO10-53 peptide derived from the NY-ESO-1 protein. CTL clones 2, 14 and 5 recognized NY-ESO-1 when cotransfected with HLA-A31 cDNA into COS-7 (FIG. 6A, C, E and G). TIL1244, which recognized TRP-2 But not NY-ESO-1, was used as a specificity control. FIGS. 6B, D, F and H. CTL clones 2, 5, 14, and TIL1244 recognized 586mel. […] TIL1244 recognized the TRP197-205 peptide derived from TRP-2, 586EBV B cells alone or pulsed with the ORF3P peptide from an alternative reading frame of TRP1 were negative controls. 397mel is an HLA-A31-negative, NY-ESO-1-positive tumor line.
# DNA transfection and GM-CSF assay were done as previously described (Wang, R. F., P. F. Robbins, Y. Kawakami, X. Q. Kang, and S. A. Rosenberg, 1995, J. Exp. Med. 181:799–804). Briefly, […] of DNA carrying a different fragment and 50 ng of the HLA-A31 DNA were mixed with 2 μl of lipofectamine in 100 μl of serum-free DMEM for 15–45 min. The DNA/lipofectamine mixture was then added to the COS-7 (5×10^4) cells and incubated overnight. The following day, cells were washed twice with DMEM medium. […] After 18–24 h incubation, 100 μl of supernatant was collected and GM-CSF was measured in a standard ELISA assay (R+D Systems, Minneapolis, Minn.). […]
substance,measurement,value
"TRP197-205: peptide derived from TRP-2, recognized by TIL1244; specificity control (LLGPGRPYR; UniProt P40126 197-205, looked up, fragment)","Recognition by TIL1244, in words",recognized
